The results in this text go back to ChEMBL document CHEMBL1201862, “PubChem BioAssay data set” (2004).

Activity calls are given as the source filed them.

Experiment [1] has as its target DNA dC->dU-editing enzyme APOBEC-3A (Homo sapiens, UniProt P31941). The experiment can be described thus: A3A deaminase inhibition for selectivity – biochemical, dose response (AID 504722). In kind it is functional.
In experiment [2] the target is DNA dC->dU-editing enzyme APOBEC-3G (Homo sapiens, UniProt Q9HC16). Put plainly: Dose Response confirmation of small molecule APOBEC3G DNA Deaminase Inhibitors via a fluorescence-based single-stranded DNA deaminase assay. [Related pubchem assays (depositor defined):AID493012, AID493028]. In kind it is functional.
Sequence of DNA dC->dU-editing enzyme APOBEC-3G (Q9HC16 whole entry): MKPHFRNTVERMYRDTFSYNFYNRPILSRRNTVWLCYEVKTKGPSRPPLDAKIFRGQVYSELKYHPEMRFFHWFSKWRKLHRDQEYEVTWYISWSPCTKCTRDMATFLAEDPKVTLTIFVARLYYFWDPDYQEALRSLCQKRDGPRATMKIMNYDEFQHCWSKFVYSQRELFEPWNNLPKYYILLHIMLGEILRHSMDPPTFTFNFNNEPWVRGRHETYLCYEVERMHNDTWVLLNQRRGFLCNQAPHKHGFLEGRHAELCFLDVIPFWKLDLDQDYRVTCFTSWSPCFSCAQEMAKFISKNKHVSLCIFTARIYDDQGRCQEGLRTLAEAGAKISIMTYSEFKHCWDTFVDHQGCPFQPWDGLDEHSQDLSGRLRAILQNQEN
Experiment [3] in a line: HEK-293T cell viability reduction – luminescence, B-cell screen hits, cytotoxicity control for BCR NF-kB inhibitor project, dose response (AID 489021).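 Note: HEK-293T cells carrying an NF-kB luciferase reporter; cells exposed to compound for about 14 hours before viability readout.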 In kind it is functional, cell-based.
In experiment [4] the target is G-protein coupled receptor 55 (Homo sapiens, UniProt Q9Y2T6). Put plainly: inhibition of LPI-stimulated GPR55 beta-arrestin translocation – imaging, U2OS, beta-arrestin-GFP, LPI agonist, primary screen (AID 2013).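 Note: antagonist potency measured as reduced agonist-driven arrestin aggregation.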 The experiment is classed as functional.
Sequence of G-protein coupled receptor 55 (Q9Y2T6 whole entry, the tested form may be a part): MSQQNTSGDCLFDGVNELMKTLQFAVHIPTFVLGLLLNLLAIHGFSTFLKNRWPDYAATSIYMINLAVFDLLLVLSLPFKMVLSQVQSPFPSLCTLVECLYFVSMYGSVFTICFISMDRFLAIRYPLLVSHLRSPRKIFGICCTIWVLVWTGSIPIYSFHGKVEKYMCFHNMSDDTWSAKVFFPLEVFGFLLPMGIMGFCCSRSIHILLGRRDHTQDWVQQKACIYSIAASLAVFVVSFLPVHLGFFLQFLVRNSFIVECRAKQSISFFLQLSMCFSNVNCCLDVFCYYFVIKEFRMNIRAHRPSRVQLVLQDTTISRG
The nature of experiment [5]: inhibition of ARNT PAS-B/TACC3 complex formation – biochemical, AlphaScreen, cherry-picked samples, confirmation (AID 651703).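 Note: His-tagged ARNT PAS-B domain paired with GST-TACC3 E629A dimer coactivator fragment; potency of inhibitors that break up the complex and lower AlphaScreen signal.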 The experiment is classed as functional, Homo sapiens.
The target of experiment [6] is T1, ORF 73 (Human herpesvirus 8, UniProt O40947).
T1 sequence (O40947 whole entry): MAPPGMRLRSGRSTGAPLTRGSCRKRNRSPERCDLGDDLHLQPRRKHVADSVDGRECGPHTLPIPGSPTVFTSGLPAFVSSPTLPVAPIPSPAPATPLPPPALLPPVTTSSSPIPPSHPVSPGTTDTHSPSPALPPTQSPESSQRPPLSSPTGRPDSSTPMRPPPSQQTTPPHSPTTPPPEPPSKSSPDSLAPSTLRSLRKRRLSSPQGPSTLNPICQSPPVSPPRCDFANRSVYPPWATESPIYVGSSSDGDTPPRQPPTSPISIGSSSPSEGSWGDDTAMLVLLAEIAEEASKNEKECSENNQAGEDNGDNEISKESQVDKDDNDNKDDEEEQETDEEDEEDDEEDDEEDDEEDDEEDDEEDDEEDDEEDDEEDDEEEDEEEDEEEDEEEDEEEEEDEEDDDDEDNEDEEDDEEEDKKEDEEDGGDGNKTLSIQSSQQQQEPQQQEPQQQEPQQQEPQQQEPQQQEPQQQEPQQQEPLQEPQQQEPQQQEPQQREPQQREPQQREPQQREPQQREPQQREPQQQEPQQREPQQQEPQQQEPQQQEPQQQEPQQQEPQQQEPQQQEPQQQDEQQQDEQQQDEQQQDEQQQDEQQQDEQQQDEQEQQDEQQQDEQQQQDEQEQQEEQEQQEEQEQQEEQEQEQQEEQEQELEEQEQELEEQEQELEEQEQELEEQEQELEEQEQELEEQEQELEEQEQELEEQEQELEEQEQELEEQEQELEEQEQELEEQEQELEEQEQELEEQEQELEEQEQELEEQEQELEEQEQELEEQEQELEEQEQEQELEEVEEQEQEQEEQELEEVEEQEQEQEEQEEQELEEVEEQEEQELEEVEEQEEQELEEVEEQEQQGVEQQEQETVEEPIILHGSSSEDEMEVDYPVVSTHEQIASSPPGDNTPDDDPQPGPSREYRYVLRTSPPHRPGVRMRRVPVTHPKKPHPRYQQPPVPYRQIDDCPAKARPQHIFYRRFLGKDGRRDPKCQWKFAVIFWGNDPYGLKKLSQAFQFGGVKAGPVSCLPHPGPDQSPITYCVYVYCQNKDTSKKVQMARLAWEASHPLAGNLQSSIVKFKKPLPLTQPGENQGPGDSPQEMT
Put plainly: KSHV LANA DNA-binding disruption – biochemical, fluorescence polarization, cherry-picked samples, dose response (AID 504725).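 Note: fluorescence polarization of a labeled DNA duplex reporting LANA DNA binding; potency is for inhibitors that block LANA binding to the DNA.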 On the set-up: species or system Human gammaherpesvirus 8.

Experiment [7] in a line: viability of HCT116 lacking mutant beta-catenin – cell-based, human colon tumor, dose response (AID 1045).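 Note: HCT116 colon tumor cells with beta catenin knocked out; cells exposed to compound for 60 hours.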 In kind it is functional.
Experiment [8] in a line: viability of PTEN-deleted HCT116 cells – cell-based, HCT116 PTEN knockout, dose response (AID 1047).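 Note: HCT116 colon tumor cells with PTEN knocked out; cells exposed to compound for 60 hours before readout; potency for loss of cell viability measured by luminescence.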 In kind it is functional.
The target in experiment [9] is Peroxisome proliferator-activated receptor gamma/Nuclear receptor coactivator 2 (Homo sapiens, UniProt P37231). In kind it is functional.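 Note: agonist potency for raising coactivator recruitment to the receptor.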
The target of experiment [10] is T2, Replicative DNA helicase DnaB (Mycobacterium tuberculosis, UniProt P9WMR3).
T2 sequence (P9WMR3 whole entry): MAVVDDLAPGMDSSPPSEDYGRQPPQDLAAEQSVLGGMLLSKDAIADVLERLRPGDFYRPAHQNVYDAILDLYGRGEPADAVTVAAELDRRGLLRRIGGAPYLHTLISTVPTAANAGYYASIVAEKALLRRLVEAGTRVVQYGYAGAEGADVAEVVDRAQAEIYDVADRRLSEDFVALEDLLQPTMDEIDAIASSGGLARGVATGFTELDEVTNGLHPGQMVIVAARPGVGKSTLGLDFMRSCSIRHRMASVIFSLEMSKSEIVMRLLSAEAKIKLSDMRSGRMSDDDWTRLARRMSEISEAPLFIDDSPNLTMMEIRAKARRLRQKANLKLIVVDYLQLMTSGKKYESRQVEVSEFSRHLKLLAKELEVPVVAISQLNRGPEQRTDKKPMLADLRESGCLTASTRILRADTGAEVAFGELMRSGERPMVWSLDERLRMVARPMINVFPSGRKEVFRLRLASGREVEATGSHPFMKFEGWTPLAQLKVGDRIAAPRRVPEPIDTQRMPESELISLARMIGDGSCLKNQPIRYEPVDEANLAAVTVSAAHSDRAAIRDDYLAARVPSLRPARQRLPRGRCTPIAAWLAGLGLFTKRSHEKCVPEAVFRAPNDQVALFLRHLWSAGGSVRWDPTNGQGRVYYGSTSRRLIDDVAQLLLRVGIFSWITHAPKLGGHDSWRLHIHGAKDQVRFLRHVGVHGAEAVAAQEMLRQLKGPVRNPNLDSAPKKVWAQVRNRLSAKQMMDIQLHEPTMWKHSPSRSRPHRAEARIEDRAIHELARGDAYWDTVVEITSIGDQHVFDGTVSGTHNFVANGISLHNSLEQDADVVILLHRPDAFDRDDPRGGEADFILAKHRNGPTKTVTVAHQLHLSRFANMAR
The experiment can be described thus: DnaB intein splicing inhibitors, dose response, biochemical, cell-free fluorescence (AID 449749). In kind it is functional.

A short description of experiment [11]: Luminescence Cell-Based Dose Retest to Confirm Inhibitors of Cancer Stem Cells. [Related pubchem assays (depositor defined):AID2717, AID2721]. The experiment is classed as functional. The following applies: Homo sapiens.
The nature of experiment [12]: cells. The experiment is classed as functional.
For experiment [13], the target named is Peroxisome proliferator-activated receptor gamma/Nuclear receptor coactivator 3 (Homo sapiens, UniProt P37231). In kind it is functional.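 Note: agonist potency for raising coactivator recruitment to the receptor.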
Sequence of Peroxisome proliferator-activated receptor gamma/Nuclear receptor coactivator 3 (P37231 whole entry): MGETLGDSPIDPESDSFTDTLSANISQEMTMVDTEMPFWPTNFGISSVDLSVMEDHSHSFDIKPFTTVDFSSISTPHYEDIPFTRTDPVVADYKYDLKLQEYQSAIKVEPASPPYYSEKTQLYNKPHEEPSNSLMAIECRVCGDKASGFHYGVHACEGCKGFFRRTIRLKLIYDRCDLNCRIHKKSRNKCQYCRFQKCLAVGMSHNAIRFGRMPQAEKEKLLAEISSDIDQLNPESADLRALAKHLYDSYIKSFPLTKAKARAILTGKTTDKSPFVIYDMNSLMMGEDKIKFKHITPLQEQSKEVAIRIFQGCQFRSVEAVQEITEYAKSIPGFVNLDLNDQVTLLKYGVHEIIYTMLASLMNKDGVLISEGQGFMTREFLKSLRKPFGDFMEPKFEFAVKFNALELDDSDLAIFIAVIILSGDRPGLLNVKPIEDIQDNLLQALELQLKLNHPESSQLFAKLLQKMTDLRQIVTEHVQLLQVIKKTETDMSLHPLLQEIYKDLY
Sequence of Peroxisome proliferator-activated receptor gamma/Nuclear receptor coactivator 3 (Q9Y6Q9 whole entry, further chain): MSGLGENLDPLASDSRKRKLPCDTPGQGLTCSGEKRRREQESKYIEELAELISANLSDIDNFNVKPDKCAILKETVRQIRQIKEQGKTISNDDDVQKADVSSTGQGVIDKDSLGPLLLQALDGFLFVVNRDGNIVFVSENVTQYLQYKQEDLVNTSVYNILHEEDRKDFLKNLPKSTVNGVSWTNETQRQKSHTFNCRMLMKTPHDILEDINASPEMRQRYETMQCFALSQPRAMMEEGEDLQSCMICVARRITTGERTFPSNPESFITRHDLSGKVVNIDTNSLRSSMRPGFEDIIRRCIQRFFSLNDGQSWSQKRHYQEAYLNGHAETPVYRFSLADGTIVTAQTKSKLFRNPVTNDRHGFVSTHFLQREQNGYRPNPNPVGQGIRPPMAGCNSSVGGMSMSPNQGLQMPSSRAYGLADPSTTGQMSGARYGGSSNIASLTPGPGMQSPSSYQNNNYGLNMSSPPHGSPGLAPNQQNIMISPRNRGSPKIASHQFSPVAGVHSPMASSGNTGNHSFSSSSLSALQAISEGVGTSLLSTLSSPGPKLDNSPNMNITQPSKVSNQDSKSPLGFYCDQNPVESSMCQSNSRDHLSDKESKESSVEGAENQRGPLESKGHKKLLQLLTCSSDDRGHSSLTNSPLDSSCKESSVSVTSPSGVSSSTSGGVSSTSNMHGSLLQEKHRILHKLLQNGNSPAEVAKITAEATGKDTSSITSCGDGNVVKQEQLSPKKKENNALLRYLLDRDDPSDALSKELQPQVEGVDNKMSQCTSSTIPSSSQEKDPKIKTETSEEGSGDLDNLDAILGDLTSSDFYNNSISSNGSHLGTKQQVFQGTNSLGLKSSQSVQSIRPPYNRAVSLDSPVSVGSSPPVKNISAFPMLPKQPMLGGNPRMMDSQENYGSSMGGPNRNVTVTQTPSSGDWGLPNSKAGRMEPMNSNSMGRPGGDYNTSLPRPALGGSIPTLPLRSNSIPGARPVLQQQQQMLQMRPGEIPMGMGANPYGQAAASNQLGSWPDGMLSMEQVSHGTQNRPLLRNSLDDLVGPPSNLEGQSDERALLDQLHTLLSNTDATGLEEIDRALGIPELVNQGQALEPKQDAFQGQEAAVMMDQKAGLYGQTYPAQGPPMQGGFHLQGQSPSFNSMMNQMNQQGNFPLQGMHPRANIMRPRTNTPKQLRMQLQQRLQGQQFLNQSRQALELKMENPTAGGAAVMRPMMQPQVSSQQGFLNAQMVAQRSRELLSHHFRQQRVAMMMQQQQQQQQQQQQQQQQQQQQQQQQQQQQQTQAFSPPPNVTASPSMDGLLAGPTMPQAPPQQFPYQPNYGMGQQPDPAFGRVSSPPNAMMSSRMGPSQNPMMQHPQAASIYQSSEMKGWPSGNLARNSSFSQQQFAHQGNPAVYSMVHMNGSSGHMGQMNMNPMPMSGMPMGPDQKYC
Experiment [14] deals with T3, Protein RecA (Mycobacterium tuberculosis, UniProt P9WHJ3).
T3 sequence (P9WHJ3 whole entry): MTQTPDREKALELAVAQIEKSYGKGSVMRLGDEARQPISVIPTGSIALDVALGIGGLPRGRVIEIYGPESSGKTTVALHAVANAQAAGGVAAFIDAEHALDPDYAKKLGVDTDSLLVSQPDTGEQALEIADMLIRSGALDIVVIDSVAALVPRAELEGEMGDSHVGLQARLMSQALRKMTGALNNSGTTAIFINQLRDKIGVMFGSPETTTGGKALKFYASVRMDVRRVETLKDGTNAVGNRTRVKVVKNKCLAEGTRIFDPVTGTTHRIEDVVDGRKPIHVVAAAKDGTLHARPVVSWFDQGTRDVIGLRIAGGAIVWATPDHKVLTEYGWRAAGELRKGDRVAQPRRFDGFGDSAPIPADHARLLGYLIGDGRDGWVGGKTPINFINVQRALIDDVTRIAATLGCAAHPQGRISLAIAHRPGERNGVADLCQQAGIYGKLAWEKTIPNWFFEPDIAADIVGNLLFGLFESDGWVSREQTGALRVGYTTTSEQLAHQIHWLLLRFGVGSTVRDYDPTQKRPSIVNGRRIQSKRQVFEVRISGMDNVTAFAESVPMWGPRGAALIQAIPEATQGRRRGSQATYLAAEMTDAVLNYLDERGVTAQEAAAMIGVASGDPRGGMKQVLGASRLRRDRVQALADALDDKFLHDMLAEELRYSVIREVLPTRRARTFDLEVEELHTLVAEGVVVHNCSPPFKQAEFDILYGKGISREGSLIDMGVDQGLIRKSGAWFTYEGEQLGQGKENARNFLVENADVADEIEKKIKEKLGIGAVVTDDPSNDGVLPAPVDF
The experiment can be described thus: Fluorescence Cell-Free Homogeneous Dose Retest to Identify Inhibitors of RecA-Intein Splicing Activity. [Related pubchem assays (depositor defined):AID2097, AID2223, AID489010, AID492950]. In kind it is functional.

Experiment [15] deals with Peroxisome proliferator-activated receptor gamma/Nuclear receptor coactivator 1 (Homo sapiens, UniProt P37231). The experiment is classed as functional.
Experiment [16] addresses T4, Alkaline phosphatase, tissue-nonspecific isozyme (Homo sapiens, UniProt P05186).
T4 sequence (P05186 whole entry): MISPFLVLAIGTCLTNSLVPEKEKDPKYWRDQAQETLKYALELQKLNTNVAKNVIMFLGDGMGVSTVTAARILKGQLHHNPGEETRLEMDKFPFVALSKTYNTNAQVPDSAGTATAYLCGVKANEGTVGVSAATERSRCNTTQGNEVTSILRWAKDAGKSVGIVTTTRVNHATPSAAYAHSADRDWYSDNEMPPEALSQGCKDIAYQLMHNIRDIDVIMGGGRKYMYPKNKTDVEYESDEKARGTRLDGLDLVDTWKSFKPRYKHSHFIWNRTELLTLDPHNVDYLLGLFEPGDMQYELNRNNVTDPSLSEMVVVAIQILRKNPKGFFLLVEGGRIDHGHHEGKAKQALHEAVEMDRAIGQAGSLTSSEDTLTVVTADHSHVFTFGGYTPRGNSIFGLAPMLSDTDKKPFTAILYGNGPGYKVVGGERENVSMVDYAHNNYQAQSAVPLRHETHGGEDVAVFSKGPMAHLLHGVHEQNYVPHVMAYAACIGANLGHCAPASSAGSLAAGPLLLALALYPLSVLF
Put plainly: potency against alkaline phosphatase TNAP – biochemical, luminescent, dose response, SAR follow-up (AID 1056).

The target of experiment [17] is Alkaline phosphatase, placental type (Homo sapiens, UniProt P05187). Put plainly: human placental alkaline phosphatase inhibition – biochemical, luminescence, confirmation (AID 1512). In kind it is functional.
Sequence of Alkaline phosphatase, placental type (P05187 whole entry): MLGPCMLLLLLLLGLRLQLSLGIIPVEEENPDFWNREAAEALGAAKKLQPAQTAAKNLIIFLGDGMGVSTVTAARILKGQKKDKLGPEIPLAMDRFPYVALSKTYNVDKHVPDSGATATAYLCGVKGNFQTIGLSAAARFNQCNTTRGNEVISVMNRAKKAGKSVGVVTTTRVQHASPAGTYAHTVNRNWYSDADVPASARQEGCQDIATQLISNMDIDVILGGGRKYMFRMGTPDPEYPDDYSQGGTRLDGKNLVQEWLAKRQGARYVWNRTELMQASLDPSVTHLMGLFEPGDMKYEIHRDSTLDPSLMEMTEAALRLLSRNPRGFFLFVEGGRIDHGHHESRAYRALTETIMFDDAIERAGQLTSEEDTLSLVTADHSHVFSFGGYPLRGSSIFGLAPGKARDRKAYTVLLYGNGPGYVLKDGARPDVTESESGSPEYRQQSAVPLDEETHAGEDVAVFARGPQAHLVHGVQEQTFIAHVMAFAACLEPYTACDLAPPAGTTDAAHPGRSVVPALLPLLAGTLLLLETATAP
Experiment [18] has as its system HT-1080. The experiment can be described thus: HT1080 cell viability loss – fluorescence readout (AID 620). The experiment is classed as functional, cell-based. The following applies: Homo sapiens.
Experiment [19] concerns the target Luciferin 4-monooxygenase (Photinus pyralis, UniProt P08659). Put plainly: Counter Screen for Luciferase-based Assay Positives. [Related pubchem assays: 620, 618, 411 ]. In general terms: A counterscreen serves to expose hits that act by an unwanted route or on another target.
Experiment [20] concerns HEK293. The experiment can be described thus: EBV LMP1 TES2 canonical NF-kB signalling blockers – cell-based, HEK293, luciferase, cherry-pick, dose response (AID 588343). The following applies: Homo sapiens. The experiment is classed as functional.
Experiment [21] deals with Glyceraldehyde-3-phosphate dehydrogenase (Homo sapiens, UniProt P04406).
Sequence of Glyceraldehyde-3-phosphate dehydrogenase (P04406 whole entry): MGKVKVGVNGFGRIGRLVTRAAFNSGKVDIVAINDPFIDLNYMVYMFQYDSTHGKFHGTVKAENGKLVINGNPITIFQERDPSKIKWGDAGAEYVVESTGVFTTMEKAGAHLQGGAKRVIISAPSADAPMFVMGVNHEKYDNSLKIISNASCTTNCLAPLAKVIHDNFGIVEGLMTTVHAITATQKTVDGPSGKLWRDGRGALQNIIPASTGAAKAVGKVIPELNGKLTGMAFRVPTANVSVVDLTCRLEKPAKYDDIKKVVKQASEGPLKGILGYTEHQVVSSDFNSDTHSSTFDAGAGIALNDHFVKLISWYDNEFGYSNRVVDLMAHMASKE

Sequence of DNA dC->dU-editing enzyme APOBEC-3A (P31941 whole entry): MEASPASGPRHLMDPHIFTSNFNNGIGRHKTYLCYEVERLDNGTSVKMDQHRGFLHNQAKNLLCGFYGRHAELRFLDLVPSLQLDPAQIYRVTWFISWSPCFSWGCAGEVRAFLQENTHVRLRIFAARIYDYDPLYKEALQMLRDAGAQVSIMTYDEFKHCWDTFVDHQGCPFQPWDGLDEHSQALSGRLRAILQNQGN
Sequence of Luciferin 4-monooxygenase (P08659 whole entry): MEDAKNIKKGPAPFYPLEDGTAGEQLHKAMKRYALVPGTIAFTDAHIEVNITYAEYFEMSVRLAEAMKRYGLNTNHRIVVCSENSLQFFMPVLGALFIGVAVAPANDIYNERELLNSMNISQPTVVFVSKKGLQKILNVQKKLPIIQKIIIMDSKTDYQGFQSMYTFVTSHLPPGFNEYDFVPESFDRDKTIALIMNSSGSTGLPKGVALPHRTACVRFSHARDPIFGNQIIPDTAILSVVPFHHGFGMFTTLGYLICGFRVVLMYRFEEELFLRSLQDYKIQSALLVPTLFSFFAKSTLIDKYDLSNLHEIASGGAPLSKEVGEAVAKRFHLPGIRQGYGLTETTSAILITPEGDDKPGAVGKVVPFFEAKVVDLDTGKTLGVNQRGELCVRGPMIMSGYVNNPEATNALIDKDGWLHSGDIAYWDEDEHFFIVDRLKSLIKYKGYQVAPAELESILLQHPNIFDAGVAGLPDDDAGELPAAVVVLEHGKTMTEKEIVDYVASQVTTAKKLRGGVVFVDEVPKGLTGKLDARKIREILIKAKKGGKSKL

One may read the IC50 as the point on the concentration scale where inhibition reaches its midpoint. For the compound `CCOC(=O)c1cc(C)nc(S)c1C#N`, the IC50 in experiment [1] was > 100 µM (inactive); in experiment [2] it was 4.65 µM (active).
`COc1ccc(/C=N\NC(=O)c2sccc2C)cc1Cn1nc(C)cc1C`: in experiment [3], the IC50 was > 80 µM (inactive).
Turning to `CC(C)Cn1c(-c2ccccc2F)n[nH]c1=S`, the IC50 in experiment [1] is > 100 µM (inactive); in experiment [2], 5.39 µM (active).
In the case of `Cc1c(CCOC(=O)c2ccc(N3CCOCC3)c([N+](=O)[O-])c2)sc[n+]1CC#N`, in experiment [4], the 50% inhibitory concentration (IC50) was 5.68 µM (active).
As a reminder, the AC50 is the concentration at which the activity in the assay is half-maximal. As to `C/C(=N/NC(=O)c1ccncc1)c1cc2ccc(O)cc2oc1=O`, the results for the AC50 in experiment [5] and in experiment [6] were 116 µM (active) and 0.544 µM (active), respectively.
On to `O=C(C1CCC1)N1CCN(S(=O)(=O)c2ccc([N+](=O)[O-])cc2)CC1`, for which the IC50 in experiment [3] was > 80 µM (inactive).
`Cc1[nH]c2nc(S)nc-2cc1Br`: the figures for the IC50 in experiment [1] and in experiment [2] were > 100 µM (inactive) and 1.98 µM (active), respectively.
What is called EC50 is the concentration giving half of the maximal effect. Consider `Cc1n[nH]c2c1C(c1ccc(-c3ccc(Cl)cc3)o1)C(C#N)=C(N)O2` (centres undefined), for which the EC50 is 9.79 µM (active) in [7]; 10.6 µM (active) in experiment [8]; > 79.4 µM (not active) in experiment [9]; > 79.4 µM (not active) in experiment [13]; 28.6 µM (active) in [14]; > 79.4 µM (not active) in experiment [15]. Also, the AC50 in [10] was 41.8 µM (active); in experiment [11], 6.86 µM (active). Besides, the IC50 in experiment [12] was 39.7 µM (active).
For `CC1(C)Oc2ccc([N+](=O)[O-])cc2O1`, the IC50 in [16] and in experiment [17] was > 100 µM (inactive) throughout.
With `Cc1noc(C)c1CN(C(=S)NC1CC2CCC1C2)c1ccccc1` (centres undefined), the IC50 in experiment [4] is 3.74 µM (active).
With `O=C(CSc1nnc(-c2ccncc2)[nH]1)c1ccc(O)c(O)c1`, the IC50 is 6.53 µM (active) in experiment [16] and 6.95 µM (active) in experiment [17].
In the case of `O=C(CN1C(=O)c2ccccc2S1(=O)=O)c1ccccc1`, the values for the EC50 in experiment [18] and in [19] were > 50 µM (not active) and > 100 µM (not active), respectively. For the same compound, the AC50 in experiment [20] was 1.36 µM (active).
With `O=C(Nc1ccc(NC(=O)c2ccco2)nc1)c1ccccn1`, the EC50 was > 50 µM (not active) in experiment [18] and 9.44 µM (active) in [19].
Take `Cc1ccc(-c2nc(N)nn2-c2ccccc2)cc1`: the figures for the IC50 in experiment [16], in experiment [21] and in experiment [17] were > 100 µM (inactive), > 100 µM (not active) and > 100 µM (inactive), respectively.
As to `CCCCCC/C=C/c1ccc(OC)c([C@H]2[C@H]3C=CC[C@@H](C)[C@@H]3C(=O)N2Cc2ccccc2)c1`, the IC50 in experiment [3] is > 80 µM (inactive).
